Laboratory results taken from paper PMC5218480 (PLoS ONE, 2017).

System: MV-4-11 cells
Assay: Gene expression microarray analysis (Affymetrix PrimeView) and GSEA
Type: cell-based, human
Parameters: RFU PODN (11730768_x_at) / Fold change /veh PODN (11730768_x_at) / RFU LINC00158 (11744669_a_at) / Fold change /veh LINC00158 (11744669_a_at) / RFU DUSP10 (11751237_a_at) / Fold change /veh DUSP10 (11751237_a_at) / RFU ID3 (11757404_x_at) / Fold change /veh ID3 (11757404_x_at) / RFU PLEKHG5 (11737974_s_at) / Fold change /veh PLEKHG5 (11737974_s_at) / RFU LRRC4B (11730491_at) / Fold change /veh LRRC4B (11730491_at) / RFU GIMAP4 (11747438_a_at) / Fold change /veh GIMAP4 (11747438_a_at) / RFU KRT8 (11758183_x_at) / Fold change /veh KRT8 (11758183_x_at) / RFU CNN1 (11734310_a_at) / Fold change /veh CNN1 (11734310_a_at) / RFU VPS37D (11726825_at) / Fold change /veh VPS37D (11726825_at) / RFU C10orf10 (11716522_x_at) / Fold change /veh C10orf10 (11716522_x_at) / RFU KIR2DL2 /// KIR2DL4 /// KIR2DL5A /// KIR2DL5B /// KIR2DS1 /// KIR2DS2 /// KIR2DS3 /// KIR2DS4 /// KIR3DL3 /// KIR3DL3 /// KIR3DS1 (11738374_at) / Fold change /veh KIR2DL2 /// KIR2DL4 /// KIR2DL5A /// KIR2DL5B /// KIR2DS1 /// KIR2DS2 /// KIR2DS3 /// KIR2DS4 /// KIR3DL3 /// KIR3DL3 /// KIR3DS1 (11738374_at) / RFU C1QL1 (11718748_at) / Fold change /veh C1QL1 (11718748_at) / RFU TMPRSS4 (11747572_a_at) / Fold change /veh TMPRSS4 (11747572_a_at) / RFU HAMP (11756126_x_at) / Fold change /veh HAMP (11756126_x_at) / RFU RNFT2 (11725882_a_at) / Fold change /veh RNFT2 (11725882_a_at) / RFU NR4A2 (11747474_a_at) / Fold change /veh NR4A2 (11747474_a_at) / RFU ABCC12 (11746883_a_at) / Fold change /veh ABCC12 (11746883_a_at) / RFU TMEM136 (11760407_x_at) / Fold change /veh TMEM136 (11760407_x_at) / RFU CLDN22 /// WWC2 (11732394_at) / Fold change /veh CLDN22 /// WWC2 (11732394_at) / RFU HLA-DPB1 (11760878_x_at) / Fold change /veh HLA-DPB1 (11760878_x_at) / RFU SPINT1 (11716480_a_at) / Fold change /veh SPINT1 (11716480_a_at) / RFU GAP43 (11754022_s_at) / Fold change /veh GAP43 (11754022_s_at) / RFU A4GNT (11735810_at) / Fold change /veh A4GNT (11735810_at) / RFU PRB3 (11715151_x_at) / Fold change /veh PRB3 (11715151_x_at) / RFU TUBB4B (11761932_at) / Fold change /veh TUBB4B (11761932_at) / RFU CAPN14 (11732068_a_at) / Fold change /veh CAPN14 (11732068_a_at) / RFU TMCC2 (11721928_a_at) / Fold change /veh TMCC2 (11721928_a_at) / RFU IRGQ (11745062_a_at) / Fold change /veh IRGQ (11745062_a_at) / RFU FAM174B (11720279_a_at) / Fold change /veh FAM174B (11720279_a_at) / RFU TMPRSS4 (11748680_a_at) / Fold change /veh TMPRSS4 (11748680_a_at) / RFU FAM212B (11763350_a_at) / Fold change /veh FAM212B (11763350_a_at) / RFU PLEKHG5 (11743358_a_at) / Fold change /veh PLEKHG5 (11743358_a_at) / RFU ZSCAN30 (11745921_a_at) / Fold change /veh ZSCAN30 (11745921_a_at) / RFU CMKLR1 (11741424_a_at) / Fold change /veh CMKLR1 (11741424_a_at) / RFU LOC101060620 /// MAPK8IP1 (11723275_at) / Fold change /veh LOC101060620 /// MAPK8IP1 (11723275_at) / RFU SPTSSB (11747773_x_at) / Fold change /veh SPTSSB (11747773_x_at) / RFU PRSS12 (11739890_at) / Fold change /veh PRSS12 (11739890_at) / RFU BIN1 (11741810_x_at) / Fold change /veh BIN1 (11741810_x_at) / RFU WNT11 (11732464_a_at) / Fold change /veh WNT11 (11732464_a_at) / RFU C10orf10 (11716521_a_at) / Fold change /veh C10orf10 (11716521_a_at) / RFU C5orf56 (11738089_at) / Fold change /veh C5orf56 (11738089_at) / RFU CYB561 (11721691_x_at) / Fold change /veh CYB561 (11721691_x_at) / RFU ANKRD19P (11752326_a_at) / Fold change /veh ANKRD19P (11752326_a_at) / RFU OR2T12 /// OR2T33 /// OR2T8 (11738714_s_at) / Fold change /veh OR2T12 /// OR2T33 /// OR2T8 (11738714_s_at) / RFU VCAN (11748164_a_at) / Fold change /veh VCAN (11748164_a_at) / RFU JSRP1 (11732532_at) / Fold change /veh JSRP1 (11732532_at) / RFU KRTAP10-11 (11738290_x_at) / Fold change /veh KRTAP10-11 (11738290_x_at) / RFU MYO3A (11730013_a_at) / Fold change /veh MYO3A (11730013_a_at) / RFU EBF3 (11725865_a_at) / Fold change /veh EBF3 (11725865_a_at) / RFU CAMK2N1 (11719241_x_at) / Fold change /veh CAMK2N1 (11719241_x_at) / RFU C5orf56 (11738088_a_at) / Fold change /veh C5orf56 (11738088_a_at) / RFU OLFML3 (11715873_a_at) / Fold change /veh OLFML3 (11715873_a_at) / RFU LOC100653217 /// NTM (11731650_a_at) / Fold change /veh LOC100653217 /// NTM (11731650_a_at) / RFU MAPK11 (11762145_a_at) / Fold change /veh MAPK11 (11762145_a_at) / RFU FIZ1 (11724087_x_at) / Fold change /veh FIZ1 (11724087_x_at) / RFU OASL (11726364_x_at) / Fold change /veh OASL (11726364_x_at) / RFU SOX15 (11748057_x_at) / Fold change /veh SOX15 (11748057_x_at) / RFU CD79A (11719716_a_at) / Fold change /veh CD79A (11719716_a_at) / RFU HIST1H1D (11736915_at) / Fold change /veh HIST1H1D (11736915_at) / RFU CASKIN2 (11723855_a_at) / Fold change /veh CASKIN2 (11723855_a_at) / RFU LOC730098 (11760151_x_at) / Fold change /veh LOC730098 (11760151_x_at) / RFU OR4N2 (11742367_at) / Fold change /veh OR4N2 (11742367_at) / RFU PRRT2 (11749266_a_at) / Fold change /veh PRRT2 (11749266_a_at) / RFU SNX32 (11753110_a_at) / Fold change /veh SNX32 (11753110_a_at) / RFU CDHR5 (11726645_a_at) / Fold change /veh CDHR5 (11726645_a_at) / RFU RCAN1 (11760418_a_at) / Fold change /veh RCAN1 (11760418_a_at) / RFU FAM167A (11723789_a_at) / Fold change /veh FAM167A (11723789_a_at) / RFU FAM26E (11764081_at) / Fold change /veh FAM26E (11764081_at) / RFU ISYNA1 (11749810_s_at) / Fold change /veh ISYNA1 (11749810_s_at) / RFU ACY1 (11761880_at) / Fold change /veh ACY1 (11761880_at) / RFU 11764098_at / Fold change /veh 11764098_at / RFU SAMD14 (11745864_x_at) / Fold change /veh SAMD14 (11745864_x_at) / RFU NPB (11741838_a_at) / Fold change /veh NPB (11741838_a_at) / RFU TMPRSS6 (11731388_a_at) / Fold change /veh TMPRSS6 (11731388_a_at) / RFU KRTAP10-2 (11738614_at) / Fold change /veh KRTAP10-2 (11738614_at) / RFU ARHGAP8 /// PRR5-ARHGAP8 (11727945_x_at) / Fold change /veh ARHGAP8 /// PRR5-ARHGAP8 (11727945_x_at) / RFU KRTAP5-7 /// NADSYN1 (11734609_at) / Fold change /veh KRTAP5-7 /// NADSYN1 (11734609_at) / RFU RASL12 (11751679_a_at) / Fold change /veh RASL12 (11751679_a_at) / RFU CDKN2B (11736163_a_at) / Fold change /veh CDKN2B (11736163_a_at) / RFU PRF1 (11729649_at) / Fold change /veh PRF1 (11729649_at) / RFU, ZNF638 /// ZNF638-IT1 / Fold change vs veh, ZNF638 /// ZNF638-IT1 / RFU, PANK3 / Fold change vs veh, PANK3 / RFU, SH3YL1 / Fold change vs veh, SH3YL1 / RFU, ZEB2 / Fold change vs veh, ZEB2 / RFU, NRIP1 / Fold change vs veh, NRIP1 / RFU, PTTG1IP / Fold change vs veh, PTTG1IP / RFU, CAPN2 / Fold change vs veh, CAPN2 / RFU, MED14 / Fold change vs veh, MED14 / RFU, SNORA58 / Fold change vs veh, SNORA58 / RFU, C1orf63 / Fold change vs veh, C1orf63 / RFU, LRRFIP1 / Fold change vs veh, LRRFIP1 / RFU, NDUFAF7 / Fold change vs veh, NDUFAF7 / RFU, SLC12A2 / Fold change vs veh, SLC12A2 / RFU, IBTK / Fold change vs veh, IBTK / RFU, ESF1 / Fold change vs veh, ESF1 / Fold change vs veh, TMEM50B / RFU, TAOK1 / Fold change vs veh, TAOK1 / RFU, ACBD3 / Fold change vs veh, ACBD3 / RFU, TMA16 / Fold change vs veh, TMA16 / RFU, RWDD3 / Fold change vs veh, RWDD3 / RFU, BCAT1 / Fold change vs veh, BCAT1 / RFU, EDEM3 / Fold change vs veh, EDEM3 / RFU, TMEM33 / Fold change vs veh, TMEM33 / RFU, WDR75 / Fold change vs veh, WDR75 / RFU, AHCTF1 / Fold change vs veh, AHCTF1 / RFU, TFRC / Fold change vs veh, TFRC / RFU, ZDHHC17 / Fold change vs veh, ZDHHC17 / RFU, NOM1 / Fold change vs veh, NOM1 / RFU, ARL8B / Fold change vs veh, ARL8B / RFU, ZBTB11 / Fold change vs veh, ZBTB11 / RFU, TAMM41 / Fold change vs veh, TAMM41 / RFU, KIAA1704 /// LOC100996395 / Fold change vs veh, KIAA1704 /// LOC100996395 / RFU, ING1 / Fold change vs veh, ING1 / RFU, TRMT61B / Fold change vs veh, TRMT61B / RFU, FUBP3 / Fold change vs veh, FUBP3 / RFU, TP53 / Fold change vs veh, TP53 / RFU, TNKS2 / Fold change vs veh, TNKS2 / RFU, ZFP14 / Fold change vs veh, ZFP14 / RFU, ACTR2 / Fold change vs veh, ACTR2 / RFU, PPP3R1 / Fold change vs veh, PPP3R1 / RFU, PIK3R1 / Fold change vs veh, PIK3R1 / RFU, HNRNPA1 / Fold change vs veh, HNRNPA1 / RFU, RNF170 / Fold change vs veh, RNF170 / RFU, ZNF28 / Fold change vs veh, ZNF28 / RFU, RNGTT / Fold change vs veh, RNGTT / RFU, OGT / Fold change vs veh, OGT / RFU, BRD1 / Fold change vs veh, BRD1 / RFU, MARS / Fold change vs veh, MARS / RFU, ZNF655 / Fold change vs veh, ZNF655 / RFU, FAHD1 / Fold change vs veh, FAHD1 / RFU, BDP1 / Fold change vs veh, BDP1 / RFU, LRRCC1 / Fold change vs veh, LRRCC1 / RFU, ARID1A / Fold change vs veh, ARID1A / RFU, ZNF146 / Fold change vs veh, ZNF146 / RFU, ZNF330 / Fold change vs veh, ZNF330 / RFU, GPN3 / Fold change vs veh, GPN3 / RFU, C9orf123 / Fold change vs veh, C9orf123 / RFU, N4BP2L2 / Fold change vs veh, N4BP2L2 / RFU, ARFIP1 / Fold change vs veh, ARFIP1 / RFU, FAM179B / Fold change vs veh, FAM179B / RFU, BCL10 / Fold change vs veh, BCL10 / RFU, UHRF1BP1L / Fold change vs veh, UHRF1BP1L / RFU, BET1 / Fold change vs veh, BET1 / RFU, CNOT2 / Fold change vs veh, CNOT2 / RFU, ZNF268 / Fold change vs veh, ZNF268 / Fold change vs veh, ZNF507 / RFU, DGCR2 / Fold change vs veh, DGCR2 / RFU, WDSUB1 / Fold change vs veh, WDSUB1 / Fold change vs veh, HSP90B1 /// MIR3652 / RFU, ADSS / Fold change vs veh, ADSS / RFU, GK / Fold change vs veh, GK / RFU, ZNF148 / Fold change vs veh, ZNF148 / RFU, TAF9 / Fold change vs veh, TAF9 / RFU, SLC1A5 / Fold change vs veh, SLC1A5 / RFU, SLMO2 / Fold change vs veh, SLMO2 / RFU, ABCC4 / Fold change vs veh, ABCC4 / RFU, LOC101060439 /// RAP1B / Fold change vs veh, LOC101060439 /// RAP1B / RFU, RFX7 / Fold change vs veh, RFX7 / RFU, GTPBP10 / Fold change vs veh, GTPBP10 / RFU, CNEP1R1 / Fold change vs veh, CNEP1R1 / RFU, BIVM-ERCC5 /// ERCC5 / Fold change vs veh, BIVM-ERCC5 /// ERCC5 / RFU, ILF3 / Fold change vs veh, ILF3 / RFU 11762660_at / Fold change /veh 11762660_at / RFU VCAN (11757783_s_at) / Fold change /veh VCAN (11757783_s_at) / RFU DDX43 (11728927_at) / Fold change /veh DDX43 (11728927_at) / RFU KRT8 (11758188_x_at) / Fold change /veh KRT8 (11758188_x_at) / RFU NKD1 (11759106_at) / Fold change /veh NKD1 (11759106_at) / RFU SRD5A1 (11742802_a_at) / Fold change /veh SRD5A1 (11742802_a_at) / RFU TPSAB1 /// TPSB2 (11721975_s_at) / Fold change /veh TPSAB1 /// TPSB2 (11721975_s_at) / RFU GSTM3 (11746129_a_at) / Fold change /veh GSTM3 (11746129_a_at) / RFU IL23R (11737362_x_at) / Fold change /veh IL23R (11737362_x_at) / RFU TMEM51 (11727254_a_at) / Fold change /veh TMEM51 (11727254_a_at) / RFU PIWIL2 (11732686_x_at) / Fold change /veh PIWIL2 (11732686_x_at) / RFU ORM1 (11744905_x_at) / Fold change /veh ORM1 (11744905_x_at) / RFU CCDC152 (11743942_at) / Fold change /veh CCDC152 (11743942_at) / RFU ECM1 (11717891_a_at) / Fold change /veh ECM1 (11717891_a_at) / RFU IL23R (11748794_a_at) / Fold change /veh IL23R (11748794_a_at) / RFU TNFAIP8L3 (11732012_x_at) / Fold change /veh TNFAIP8L3 (11732012_x_at) / RFU MBOAT4 (11741988_at) / Fold change /veh MBOAT4 (11741988_at) / RFU 11764193_at / Fold change /veh 11764193_at / RFU TMEM53 (11763286_at) / Fold change /veh TMEM53 (11763286_at) / RFU MAGEB2 (11727129_at) / Fold change /veh MAGEB2 (11727129_at) / RFU TMEM200A (11744735_a_at) / Fold change /veh TMEM200A (11744735_a_at) / RFU CCDC152 (11751479_a_at) / Fold change /veh CCDC152 (11751479_a_at) / RFU FAM211A (11726209_a_at) / Fold change /veh FAM211A (11726209_a_at) / RFU RGS16 (11746705_a_at) / Fold change /veh RGS16 (11746705_a_at) / RFU VCAN (11755009_s_at) / Fold change /veh VCAN (11755009_s_at) / RFU RHOB (11743442_s_at) / Fold change /veh RHOB (11743442_s_at) / RFU RGS16 (11720943_a_at) / Fold change /veh RGS16 (11720943_a_at) / RFU RGS16 (11720944_at) / Fold change /veh RGS16 (11720944_at) / RFU, VPS4B / Fold change vs veh, VPS4B / RFU, CREB1 / Fold change vs veh, CREB1 / RFU, DNAJC13 / Fold change vs veh, DNAJC13 / RFU, GNAQ / Fold change vs veh, GNAQ / RFU, CDK5R1 / Fold change vs veh, CDK5R1 / RFU, ZRANB3 / Fold change vs veh, ZRANB3 / RFU, CUL4A / Fold change vs veh, CUL4A / RFU, CCNY / Fold change vs veh, CCNY / RFU, UFL1 / Fold change vs veh, UFL1 / RFU, COG3 / Fold change vs veh, COG3 / RFU, DIAPH2 / Fold change vs veh, DIAPH2 / RFU, SKA2 / Fold change vs veh, SKA2 / RFU, AFF3 / Fold change vs veh, AFF3 / RFU, LMF1 / Fold change vs veh, LMF1 / RFU, IPO11 / Fold change vs veh, IPO11 / RFU, DFFB / Fold change vs veh, DFFB / RFU, FOXP1 / Fold change vs veh, FOXP1 / RFU, CARD8 / Fold change vs veh, CARD8 / RFU, STRN3 / Fold change vs veh, STRN3 / RFU, ADK / Fold change vs veh, ADK / RFU, RASSF2 / Fold change vs veh, RASSF2 / RFU, WIPF1 / Fold change vs veh, WIPF1 / RFU, LARP1B / Fold change vs veh, LARP1B / RFU, RASA1 / Fold change vs veh, RASA1 / RFU, RB1 / Fold change vs veh, RB1 / RFU, PPFIA1 / Fold change vs veh, PPFIA1 / RFU, MAT2A / Fold change vs veh, MAT2A / RFU, CCT5 / Fold change vs veh, CCT5 / RFU, WDR92 / Fold change vs veh, WDR92 / RFU, CUX1 / Fold change vs veh, CUX1 / RFU, TTC7A / Fold change vs veh, TTC7A / RFU, TMEM135 / Fold change vs veh, TMEM135 / RFU, DEPTOR / Fold change vs veh, DEPTOR / RFU, CPM / Fold change vs veh, CPM / RFU, DNAJB6 / Fold change vs veh, DNAJB6 / RFU, CACNA2D3 / Fold change vs veh, CACNA2D3 / RFU, DTX4 / Fold change vs veh, DTX4 / RFU, TFCP2 / Fold change vs veh, TFCP2 / RFU, GMCL1 /// GMCL1P1 / Fold change vs veh, GMCL1 /// GMCL1P1 / RFU, AEBP2 / Fold change vs veh, AEBP2 / RFU, SNHG1 /// SNORD22 /// SNORD25 /// SNORD26 /// SNORD27 /// SNORD28 /// SNORD29 /// SNORD31 / Fold change vs veh, SNHG1 /// SNORD22 /// SNORD25 /// SNORD26 /// SNORD27 /// SNORD28 /// SNORD29 /// SNORD31 / Fold change (Aza/veh), C12orf56 (ProbeSet 11735607_a_at) / Fold change (ACY-1035/veh), C12orf56 (ProbeSet 11735607_a_at) / Fold change (Aza/veh), FGFR1OP (ProbeSet 11751329_s_at) / Fold change (ACY-1035/veh), FGFR1OP (ProbeSet 11751329_s_at) / Fold change (Aza/veh), VPS36 (ProbeSet 11739960_a_at) / Fold change (ACY-1035/veh), VPS36 (ProbeSet 11739960_a_at) / RFU SYPL1 (11715823_x_at) / Fold change /veh SYPL1 (11715823_x_at) / RFU IGFBP7 (11715501_s_at) / Fold change /veh IGFBP7 (11715501_s_at) / RFU REEP3 (11722064_at) / Fold change /veh REEP3 (11722064_at) / RFU IGLL1 (11728026_x_at) / Fold change /veh IGLL1 (11728026_x_at): dose or concentration left out as unconfirmed
Conditions: MV-4-11 cells, 48 hours

Nc1ncn([C@@H]2O[C@H](CO)[C@@H](O)[C@H]2O)c(=O)n1 [azacitidine]
Fold change /veh RCAN1 (11760418_a_at): 0.93
